The test system of this test is CD8F1 mice, subcutaneous mammary adenocarcinoma, T/C%. Nature of the test: NCI In Vivo Anticancer Drug Screen. Data for tumor model Mammary Adenocarcinoma CD8F1 (subcutaneous) in CD8F1. Particulars: higher = larger tumour. In short, it runs like this: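 Transplantable tumors were established in mice, animals were dosed with compound or vehicle, and survival or tumor size was then measured in both groups. The treated result was divided by the control result.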

[1] abbreviates: endpoint: median tumor weight change, dose: 50.0 mg/kg/injection, schedule: Q01DX001 (ip), vehicle: Klucel (hydroxypropylcellulose) (HPC).
[2] abbreviates: endpoint: median tumor weight change, dose: 100.0 mg/kg/injection, schedule: Q01DX001 (ip), vehicle: Klucel (hydroxypropylcellulose) (HPC).

The values below come from PubChem BioAssay AID220 (DTP/NCI, 2004).

Several values for one entry are separate records, joined by “and”; a condition that tells them apart may be missing. Equal entries are not always repeated. Inconclusive results are not listed.

For `C[C@@](O)(/C=C/[C@H]1CC=CC(=O)O1)[C@@H](C[C@@H](O)\C=C/C=C\C=C\CO)OP(=O)(O)O`, the T/C is 99 % of control (endpoint: median tumor weight change, dose: 15.62 mg/kg/injection, schedule: Q01DX001 (ip), vehicle: other); 83 % of control (endpoint: median tumor weight change, dose: 31.25 mg/kg/injection, schedule: Q01DX001 (ip), vehicle: other); 42 % of control (endpoint: median tumor weight change, dose: 62.5 mg/kg/injection, schedule: Q01DX001 (ip), vehicle: other).

With `COc1c(O)c2c(c3cc(C(=O)N4CCc5c4c(O)c(OC)c4[nH]c(C(=O)N6CC7CC78C6=CC(=O)c6[nH]cc(C)c68)cc54)[nH]c13)CCN2C(N)=O` (stereo not given), the T/C was 97 % of control (endpoint: median tumor weight (est.), dose: 6.25 micrograms/kg/injection, schedule: Q07DX005 (ip), vehicle: DMSO) and 42 % of control (endpoint: median tumor weight (est.), dose: 12.5 micrograms/kg/injection, schedule: Q07DX005 (ip), vehicle: DMSO).

In the case of `CC(=O)NNC(=O)c1ccccn1`, the T/C by setting is: (endpoint: mean tumor weight, dose: 25.0 mg/kg/injection, schedule: Q01DX009 (ip), vehicle: saline) 28 % of control; (endpoint: mean tumor weight, dose: 50.0 mg/kg/injection, schedule: Q07DX004 (ip), vehicle: saline) 112 % of control; (endpoint: mean tumor weight, dose: 100.0 mg/kg/injection, schedule: Q01DX009 (ip), vehicle: saline) 32 % of control; (endpoint: mean tumor weight, dose: 100.0 mg/kg/injection, schedule: Q07DX004 (ip), vehicle: saline) 74 % of control; (endpoint: mean tumor weight, dose: 100.0 mg/kg/injection, schedule: Q07DX005 (ip), vehicle: saline) 99 % of control; (endpoint: mean tumor weight, dose: 200.0 mg/kg/injection, schedule: Q07DX004 (ip), vehicle: saline) 56 % of control. For the same molecule, the T/C (endpoint: mean tumor weight, dose: 200.0 mg/kg/injection, schedule: Q07DX005 (ip), vehicle: saline) is 82 % of control.

Turning to `CCN(C)N=Nc1ccc(C(N)=O)cc1`, the T/C under setting [1] is 51 % of control; the T/C (endpoint: median tumor weight change, dose: 62.5 mg/kg/injection, schedule: Q01DX001 (ip), vehicle: Klucel (hydroxypropylcellulose) (HPC)) was 92 % of control; the T/C under setting [2] is 72 % of control; the T/C (endpoint: median tumor weight change, dose: 125.0 mg/kg/injection, schedule: Q01DX001 (ip), vehicle: Klucel (hydroxypropylcellulose) (HPC)) was 91 % of control; the T/C (endpoint: median tumor weight change, dose: 200.0 mg/kg/injection, schedule: Q01DX001 (ip), vehicle: Klucel (hydroxypropylcellulose) (HPC)) is 44 % of control; the T/C (endpoint: median tumor weight change, dose: 250.0 mg/kg/injection, schedule: Q01DX001 (ip), vehicle: Klucel (hydroxypropylcellulose) (HPC)) was 24 % of control. The T/C (endpoint: median tumor weight change, dose: 400.0 mg/kg/injection, schedule: Q01DX001 (ip), vehicle: Klucel (hydroxypropylcellulose) (HPC)) was 21 % of control.

As for `Cc1cc(NCCN(C(C)C)C(C)C)nc(/N=C(\N)Nc2ccc(Cl)c(C(F)(F)F)c2)n1`, the T/C is, setting by setting: (endpoint: median tumor weight change, dose: 12.5 mg/kg/injection, schedule: Q01DX001 (ip), vehicle: Klucel (hydroxypropylcellulose) (HPC)) 39 % of control and 45 % of control; under setting [1], 27 % of control and 39 % of control; under setting [2], 50 % of control and 74 % of control.

For `C/C=C(\C)c1cc(=O)c2c(C)cc3c(c2o1)C(=O)c1c(O)c(C2CC(C)(N(C)C)C(OC(C)=O)C(C)O2)cc(C2CC(N(C)C)C(O)C(C)O2)c1C3=O` (stereo not given), the T/C was 157 % of control (endpoint: median tumor weight (est.), dose: 0.15 mg/kg/injection, schedule: Q07DX005 (ip), vehicle: saline); 100 % of control (endpoint: median tumor weight (est.), dose: 0.31 mg/kg/injection, schedule: Q07DX005 (ip), vehicle: saline); 116 % of control (endpoint: median tumor weight (est.), dose: 0.62 mg/kg/injection, schedule: Q07DX005 (ip), vehicle: saline); 164 % of control (endpoint: median tumor weight change, dose: 1.56 mg/kg/injection, schedule: Q01DX001 (ip), vehicle: suspension in saline); 153 % of control (endpoint: median tumor weight change, dose: 3.12 mg/kg/injection, schedule: Q01DX001 (ip), vehicle: suspension in saline); 116 % of control (endpoint: median tumor weight change, dose: 6.25 mg/kg/injection, schedule: Q01DX001 (ip), vehicle: suspension in saline). In addition, the T/C reads like this: (endpoint: median tumor weight change, dose: 12.5 mg/kg/injection, schedule: Q01DX001 (ip), vehicle: suspension in saline) 82 % of control; (endpoint: median tumor weight change, dose: 25.0 mg/kg/injection, schedule: Q01DX001 (ip), vehicle: suspension in saline) 64 % of control.

As for `C=CCNc1ccc(C)cc1`, the T/C (endpoint: median tumor weight (est.), dose: 6.25 mg/kg/injection, schedule: Q07DX005 (ip), vehicle: Klucel (hydroxypropylcellulose) (HPC)) is 73 % of control; the T/C (endpoint: median tumor weight (est.), dose: 12.5 mg/kg/injection, schedule: Q07DX005 (ip), vehicle: Klucel (hydroxypropylcellulose) (HPC)) is 77 % of control; the T/C (endpoint: median tumor weight (est.), dose: 25.0 mg/kg/injection, schedule: Q07DX005 (ip), vehicle: Klucel (hydroxypropylcellulose) (HPC)) was 80 % of control; the T/C (endpoint: median tumor weight (est.), dose: 50.0 mg/kg/injection, schedule: Q07DX005 (ip), vehicle: Klucel (hydroxypropylcellulose) (HPC)) is 57 % of control; the T/C (endpoint: median tumor weight (est.), dose: 100.0 mg/kg/injection, schedule: Q07DX005 (ip), vehicle: Klucel (hydroxypropylcellulose) (HPC)) is 88 % of control; the T/C (endpoint: median tumor weight (est.), dose: 200.0 mg/kg/injection, schedule: Q07DX005 (ip), vehicle: Klucel (hydroxypropylcellulose) (HPC)) was 62 % of control.

Turning to `NC(=S)Nc1cccc2ccccc12`, the T/C is 58 % of control (endpoint: median tumor weight change, dose: 31.25 mg/kg/injection, schedule: Q01DX001 (ip), vehicle: saline with Tween-80) and 80 % of control (endpoint: median tumor weight change, dose: 62.5 mg/kg/injection, schedule: Q01DX001 (ip), vehicle: saline with Tween-80).

As to `Cc1cc(NS(=O)(=O)c2ccc(N=Nc3cc(N=Nc4ccc(S(=O)(=O)Nc5cc(C)nc(C)n5)cc4)c4c(NC(=O)C(Cl)Cl)cccc4c3OC(=O)C(Cl)Cl)cc2)nc(C)n1` (tested in a mixture with another compound), the T/C is, setting by setting: (endpoint: median tumor weight change, dose: 250.0 mg/kg/injection, schedule: Q01DX001 (ip), vehicle: suspension in saline) 167 % of control; (endpoint: median tumor weight change, dose: 500.0 mg/kg/injection, schedule: Q01DX001 (ip), vehicle: suspension in saline) 65 % of control.
